The first test has as its target PI3K isoform δ (Homo sapiens (Human), UniProt O00329). As to the kind of experiment: TR-FRET assay of enzymatic activity of class I PI3K isoforms. To be noted: read-out: IC50 (nM) for PI3K isoform δ (Table 2); TR-FRET; 2× Km ATP, 2 μM PIP2; incubated for 30 minutes at 25° C. On the technique in general: TR-FRET usually uses a lanthanide donor and a delayed reading to cut background.
Sequence of PI3K isoform δ (O00329 whole entry, canonical isoform): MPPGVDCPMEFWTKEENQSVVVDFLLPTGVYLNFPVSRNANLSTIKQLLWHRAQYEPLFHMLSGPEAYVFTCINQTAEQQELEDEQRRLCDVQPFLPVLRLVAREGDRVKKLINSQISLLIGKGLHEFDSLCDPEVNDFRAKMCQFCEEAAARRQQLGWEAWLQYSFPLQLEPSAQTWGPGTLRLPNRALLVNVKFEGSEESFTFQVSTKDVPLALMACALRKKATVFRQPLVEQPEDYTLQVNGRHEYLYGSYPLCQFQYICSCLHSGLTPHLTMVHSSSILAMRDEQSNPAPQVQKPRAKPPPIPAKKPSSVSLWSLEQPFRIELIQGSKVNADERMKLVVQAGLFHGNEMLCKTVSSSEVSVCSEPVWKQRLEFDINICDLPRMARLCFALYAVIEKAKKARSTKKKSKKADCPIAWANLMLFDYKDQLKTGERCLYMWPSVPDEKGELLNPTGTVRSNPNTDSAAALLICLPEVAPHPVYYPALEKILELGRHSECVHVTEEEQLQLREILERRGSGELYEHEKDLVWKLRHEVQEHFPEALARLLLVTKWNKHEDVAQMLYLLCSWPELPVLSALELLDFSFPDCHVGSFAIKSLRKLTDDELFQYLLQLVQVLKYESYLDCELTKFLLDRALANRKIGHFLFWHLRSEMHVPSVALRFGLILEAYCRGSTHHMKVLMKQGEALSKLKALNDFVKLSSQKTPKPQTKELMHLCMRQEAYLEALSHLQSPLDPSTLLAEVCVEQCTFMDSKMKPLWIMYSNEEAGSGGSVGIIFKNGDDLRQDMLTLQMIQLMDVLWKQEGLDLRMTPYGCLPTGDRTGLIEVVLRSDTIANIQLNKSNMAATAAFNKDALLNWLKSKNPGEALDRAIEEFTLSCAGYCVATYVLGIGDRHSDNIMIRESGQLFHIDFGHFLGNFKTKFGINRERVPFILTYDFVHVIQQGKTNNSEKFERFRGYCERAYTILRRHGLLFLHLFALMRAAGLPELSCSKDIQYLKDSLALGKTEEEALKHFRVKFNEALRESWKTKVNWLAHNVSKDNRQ
Sequence of PI3K isoform δ (P27986 whole entry partner, canonical isoform): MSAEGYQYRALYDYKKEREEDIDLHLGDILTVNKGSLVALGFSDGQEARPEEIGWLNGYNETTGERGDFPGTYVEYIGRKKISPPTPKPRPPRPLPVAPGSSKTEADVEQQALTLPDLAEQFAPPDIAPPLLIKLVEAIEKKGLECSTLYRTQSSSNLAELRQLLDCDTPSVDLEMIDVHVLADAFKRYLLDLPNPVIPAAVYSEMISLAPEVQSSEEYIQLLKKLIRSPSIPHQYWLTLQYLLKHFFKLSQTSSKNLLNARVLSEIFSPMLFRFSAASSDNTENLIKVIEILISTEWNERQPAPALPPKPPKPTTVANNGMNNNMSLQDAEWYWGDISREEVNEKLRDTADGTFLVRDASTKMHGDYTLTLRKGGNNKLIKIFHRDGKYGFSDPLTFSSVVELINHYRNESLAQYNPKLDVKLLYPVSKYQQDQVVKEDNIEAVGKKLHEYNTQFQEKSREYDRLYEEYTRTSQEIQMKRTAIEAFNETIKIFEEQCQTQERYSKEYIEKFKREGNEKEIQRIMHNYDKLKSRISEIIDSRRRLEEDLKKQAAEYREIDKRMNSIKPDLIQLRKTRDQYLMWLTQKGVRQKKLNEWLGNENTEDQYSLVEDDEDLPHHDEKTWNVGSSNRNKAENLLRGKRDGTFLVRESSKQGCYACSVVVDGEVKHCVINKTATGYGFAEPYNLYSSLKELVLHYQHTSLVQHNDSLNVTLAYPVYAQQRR
Excerpt: TR-FRET monitored the formation of 3,4,5-inositol triphosphate molecule that competed with fluorescently labeled PIP3 for binding to the GRP-1 pleckstrin homology domain protein. […] Class I PI3K isoforms were expressed and purified as heterodimeric recombinant proteins. All assay reagents and buffers for the TR-FRET assay were purchased from Millipore.
As a reminder, the IC50 is the concentration that gives 50% inhibition. With `Cc1cccc2nc([C@@H](Nc3nc(N)nc(N)c3C#N)C3CC3)n(-c3cc(F)cc(F)c3)c(=O)c12` [Compound 12a, (S)-2,4-diamino-6-((cyclopropyl(3-(3,5-difluorophenyl)-5-methyl-4-oxo-3,4-dihydroquinazolin-2-yl)methyl)amino)pyrimidine-5-carbonitrile], the IC50 was 1 nM.

As to `N#Cc1c(N)nc(N)nc1N[C@H](c1nc2cccc(Cl)c2c(=O)n1-c1cc(F)cc(F)c1)C1CC1` [Compound 13a, (S)-2,4-diamino-6-(((5-chloro-3-(3,5-difluorophenyl)-4-oxo-3,4-dihydroquinazolin-2-yl)(cyclopropyl)methyl)amino)pyrimidine-5-carbonitrile], the IC50 was 1 nM.

The test is the same for the next values; noted with them: read-out: IC50 (nM) for PI3K isoform δ (Table 3); TR-FRET; 2× Km ATP, 2 μM PIP2; incubated for 30 minutes at 25° C.
For the compound `N#Cc1c(N)nc(N)nc1N[C@H](c1nc2c(F)ccc(CCCN3CCCC3)c2c(=O)n1-c1ccccc1)C1CC1` [Compound 58, (S)-2,4-diamino-6-((cyclopropyl(8-fluoro-4-oxo-3-phenyl-5-(3-(pyrrolidin-1-yl)propyl)-3,4-dihydroquinazolin-2-yl)methyl)amino)pyrimidine-5-carbonitrile], the IC50 amounted to 3 nM. Take `C[C@H](Nc1nc(N)nc(N)c1C#N)c1nc2cccc(OCCN3CCN(c4ccccc4)CC3)c2c(=O)n1-c1ccccc1` [Compound 31, (S)-2,4-diamino-6-((1-(4-oxo-3-phenyl-5-(2-(4-phenylpiperazin-1-yl)ethoxy)-3,4-dihydroquinazolin-2-yl)ethyl)amino)pyrimidine-5-carbonitrile]: the IC50 is 4 nM. On to `C[C@H](Nc1nc(N)nc(N)c1Cl)c1nc2cccc(CCC(N)=O)c2c(=O)n1-c1ccccc1` [Compound 43, (S)-3-(2-(1-((2,6-diamino-5-chloropyrimidin-4-yl)amino)ethyl)-4-oxo-3-phenyl-3,4-dihydroquinazoline-5-yl)propanamide], for which the half-inhibitory concentration (IC50) was found to be 9 nM.

As to `C[C@H](Nc1nc(N)nc(N)c1C#N)c1nc2cccc(OCC(=O)N3CCOCC3)c2c(=O)n1-c1ccccc1` [Compound 35, (S)-2,4-diamino-6-((1-(5-(2-morpholino-2-oxoethoxy)-4-oxo-3-phenyl-3,4-dihydroquinazolin-2-yl)ethyl)amino)pyrimidine-5-carbonitrile], the IC50 turned out to be 7 nM. Still for that read-out and setting: for `N#Cc1c(N)nc(N)nc1N1CCC[C@H]1c1nc2c(Cl)ccc(Cl)c2c(=O)n1-c1cccc(S(N)(=O)=O)c1` (single isomer, unassigned) [Compound 92] the value was 7 nM; for `C[C@H](Nc1nc(N)nc(N)c1C#N)c1nc2c(F)ccc(CCCN3CCC(F)(F)C3)c2c(=O)n1-c1ccccc1` [Compound 55, (S)-2,4-diamino-6-((1-(5-(3-(3,3-difluoropyrrolidin-1-yl)propyl)-8-fluoro-4-oxo-3-phenyl-3,4-dihydroquinazolin-2-yl)ethyl)amino)pyrimidine-5-carbonitrile], 0.4 nM.

These data come from patent US9765060B2 (Gilead Sciences, Inc., priority 2014, dated 2017).
